Assays:
[1] = SERS detection and time profile of PAHs/PAC in murine tissue extracts; type: in vivo, mice (C57BL6J)
[2] = GC-MS/MS quantification of B[a]P, PYR and TQE in tissues; type: in vivo, mice (C57BL6J)
[3] = 24, 48, 72 h post-injection, t(1) < 12.71, p > 0.05 as printed

Compound	Detection in liver and kidney tissues using SERS and SEIRA ([1]; mouse, in vivo)	Statistical significance of GC-MS/MS tissue concentrations ([2]; female, C57BL6J, mouse, in vivo)	Detection in liver and kidney tissues using SERS and SEIRA ([1]; mice exposed to individual PAHs or PACs, Figs. S3 and S4)	Statistical significance of GC-MS/MS tissue concentrations [2, 3]	Tissue accumulation relative to the other analyzed compounds ([2]; IP mixture, brain, kidney, liver, lung, 24-72 h post-exposure)
c1ccc2c(c1)cc1ccc3cccc4ccc2c1c34 [B[a]P, benzo(a)pyrene]	successful detection	statistically significant except in lung at 72 hours post-injection			
c1cc2ccc3cccc4ccc(c1)c2c34 [PYR, pyrene]			successful detection	statistically significant across all tissues and time points	
O=C1c2ccccc2C(=O)c2cc3ccccc3cc21 [TQE, 5,12-Naphthacenequinone]	successful detection			statistically significant across all tissues and time points	lowest accumulation
